According to patent publication US20260001914A1, “MACROCYCLIC PEPTIDES TARGETING KRAS” (Merck Sharp & Dohme LLC, priority 2022, published 2026):
pEC50: −log10 of the molar value. *1 amine or outer side, *2 acyl side, *3 side chain or, on linkers, in order; H or OH if unused. Where a SMILES comes first, the peptide text is derived from it. Bridges are numbered along the chain shown (N, C = ends). [ ]: non-standard residue; d: D form. Phe(4-guanidino) = N=C(N)Nc1ccc(C[C@H](N)C(=O)O)cc1; X22 = CNC(=N)N(C)CCC[C@@H](C(=O)[*:2])N(C)[*:1]; Ala(pyrimidin-5-yl) = N[C@@H](Cc1cncnc1)C(=O)O; Gly(N-(CH2)3-guanidino) = N=C(N)NCCCNCC(=O)O; NMe3Pal(6-Me) = CN[C@@H](Cc1ccc(C)nc1)C(=O)O; X25 = O=C([C@H](Cc1ccc(F)nc1)N[*:1])[*:2]; NMeAha = CN[C@@H](CCN=[N+]=[N-])C(=O)O; X2 = O=C([C@H](Cc1ccccc1F)O[*:1])[*:2]; Phe(2-F) = N[C@@H](Cc1ccccc1F)C(=O)O; Abu(4,4-F2) = N[C@@H](CC(F)F)C(=O)O; NMe3Pal = CN[C@@H](Cc1cccnc1)C(=O)O; NMeY = CN[C@@H](Cc1ccc(O)cc1)C(=O)O; X1 = O=C(C12CC(CN[*:1])(C1)C2)[*:2]; NMeCha = CN[C@@H](CC1CCCCC1)C(=O)O; NMeF = CN[C@@H](Cc1ccccc1)C(=O)O; PhLac = O=C(O)[C@@H](O)Cc1ccccc1; 3Pal = N[C@@H](Cc1cccnc1)C(=O)O; Ahp(2) = CCCCC[C@H](N)C(=O)O; Cba = N[C@@H](CC1CCC1)C(=O)O; hLeu = CC(C)CC[C@H](N)C(=O)O; αMeC = C[C@](N)(CS)C(=O)O; NMeA = CN[C@@H](C)C(=O)O; Nle = CCCC[C@H](N)C(=O)O; Nva = CCC[C@H](N)C(=O)O
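Further: signal taken as phospho-ERK over total ERK per well, both detected in one multiplex bead assay, EC50 from four-parameter logistic fit of dose-response curves.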

Each molecule was assayed against phosphorylation levels of ERK1/2 in AsPC-1 (homozygous KRAS-G12D) cells (Homo sapiens, UniProt P01116, G12D) (assay: Cellular phospho-ERK assay in AsPC-1 cells (Alpha Screen), assay medium without fetal bovine serum). Settings: phospho-ERK AlphaScreen, 18 h.
phosphorylation levels of ERK1/2 in AsPC-1 (homozygous KRAS-G12D) cells, sequence (P01116 1-186 G12D): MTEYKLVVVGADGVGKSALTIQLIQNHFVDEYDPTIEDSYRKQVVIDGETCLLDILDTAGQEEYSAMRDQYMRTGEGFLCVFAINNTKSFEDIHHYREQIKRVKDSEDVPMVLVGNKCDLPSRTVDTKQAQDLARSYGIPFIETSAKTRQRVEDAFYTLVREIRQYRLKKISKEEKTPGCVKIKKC
Assay type: cell-based
CCCCC[C@@H]1NC(=O)[C@H](Cc2ccc(OC)cc2)NC(=O)[C@H](CC2CCC2)NC(=O)[C@H](Cc2cccnc2)NC(=O)[C@H](CCCNC(=N)N)NC(=O)[C@H](Cc2ccccc2)NC(=O)CSC[C@@](C)(C(N)=O)NC(=O)[C@H](Cc2ccc(C)nc2)N(C)C1=O [compound 377, cyclo(F-R-3Pal-cBuA-TyrOMe-Ahp-NMe3Pal4Me-aMeCl-ClAc)] ({CH2CO}-FR[3Pal][Cba]Y(Me)[Ahp(2)][NMe3Pal(6-Me)][αMeC]-NH2; thioether N-8) gave a pEC50 of under 4.29. Molecule CCCCC[C@@H]1NC(=O)[C@H](Cc2ccc(OC)cc2)NC(=O)[C@H](CC2CCC2)NC(=O)[C@H](Cc2ccc(NC(=N)N)cc2)NC(=O)[C@H](CCCN(C)C(=N)NC)N(C)C(=O)[C@H](Cc2ccccc2)NC(=O)CSC[C@@](C)(C(N)=O)NC(=O)[C@H](Cc2ccccc2)N(C)C1=O [compound 381, cyclo(F-NMeArg1MeMe-Phe4Gn-cBuA-TyrOMe-Ahp-NMeF-aMeCl-ClAc)] ({CH2CO}-F[X22][Phe(4-guanidino)][Cba]Y(Me)[Ahp(2)][NMeF][αMeC]-NH2; thioether N-8) has a pEC50 of under 4.29. With CCCC[C@@H]1NC(=O)[C@H](Cc2cncnc2)NC(=O)[C@H](C)N(C)C(=O)[C@H](Cc2ccccc2)OC(=O)C23CC(CNC(=O)[C@H](Cc4ccc(OC)cc4)N(C)C(=O)[C@H](CCCC)NC(=O)[C@H](Cc4ccccc4F)NC1=O)(C2)C3 [compound 175, cyclo(FLac-NMeA-PyrimAla-Nle-Phe2F-Nle-NMeYOMe-amBCP)] (cyclo([NMeA][Ala(pyrimidin-5-yl)][Nle][Phe(2-F)][Nle][NMeY](Me)[X1][PhLac])) the pEC50 was 6.36. CC(C)CC[C@@H]1NC(=O)[C@H](Cc2ccccc2F)NC(=O)[C@H](CC(F)F)NC(=O)[C@H](Cc2cncnc2)NC(=O)[C@H](C)N(C)C(=O)[C@H](Cc2ccccc2)OC(=O)C23CC(CNC(=O)[C@H](Cc4ccccc4)N(C)C1=O)(C2)C3 [compound 304, cyclo(FLac-NMeA-PyrimAla-AbuF2-Phe2F-hL-NMeF-amBCP)] (cyclo([NMeA][Ala(pyrimidin-5-yl)][Abu(4,4-F2)][Phe(2-F)][hLeu][NMeF][X1][PhLac])) was tested, and the pEC50 was 5.73. For CCCC[C@@H]1NC(=O)[C@H](Cc2ccccc2)NC(=O)[C@H](C)N(C)C(=O)[C@H](Cc2ccccc2)OC(=O)C23CC(CNC(=O)[C@H](Cc4ccccc4)N(C)C(=O)[C@H](CCCC)NC(=O)[C@H](Cc4ccccc4F)NC1=O)(C2)C3 [compound 305, cyclo(FLac-NMeA-F-Nle-Phe2F-Nle-NMeF-amBCP)] (cyclo(F[Nle][Phe(2-F)][Nle][NMeF][X1][PhLac][NMeA])), the pEC50 was under 4.29. In the case of CCCC[C@@H]1NC(=O)[C@H](Cc2cccnc2)NC(=O)[C@H](C)N(C)C(=O)[C@H](Cc2ccccc2)OC(=O)C23CC(CNC(=O)[C@H](CC4CCCCC4)N(C)C(=O)[C@H](CCCC)NC(=O)[C@H](Cc4ccccc4F)NC1=O)(C2)C3 [compound 232, cyclo(FLac-NMeA-3Pal-Nle-Phe2F-Nle-NMeCha-amBCP)] (cyclo([3Pal][Nle][Phe(2-F)][Nle][NMeCha][X1][PhLac][NMeA])), the pEC50 was under 4.29. CCCC[C@@H]1NC(=O)[C@H](Cc2cccnc2)NC(=O)[C@H](CCN=[N+]=[N-])N(C)C(=O)[C@H](Cc2ccccc2)OC(=O)C23CC(CNC(=O)[C@H](Cc4cccnc4)N(C)C(=O)[C@H](CCCC)NC(=O)[C@H](Cc4ccccc4F)OC1=O)(C2)C3 [compound 238, cyclo(FLac-NMeDabN3-3Pal-Nle-F2FLac-Nle-NMe3Pal-amBCP)] (cyclo([3Pal][Nle][X2][Nle][NMe3Pal][X1][PhLac][NMeAha])) showed a pEC50 of 5.46. In the case of CCCCC[C@@H]1NC(=O)[C@H](Cc2ccc(OC)cc2)NC(=O)[C@H](CC2CCC2)NC(=O)[C@H](Cc2ccc(-c3cccnc3N)cc2)NC(=O)[C@H](CCCNC(=N)N)NC(=O)[C@H](Cc2ccccc2)NC(=O)CSC[C@@](C)(C(N)=O)NC(=O)[C@H](Cc2ccccc2)N(C)C1=O [compound 390, cyclo(F-R-Phe43PyNH2-cBuA-TyrOMe-Ahp-NMeF-aMeCl-ClAc)], the pEC50 was under 4.29. CCCC[C@@H]1NC(=O)[C@H](Cc2cccnc2)NC(=O)[C@H](CCCNC(=N)N)NC(=O)[C@H](Cc2ccccc2)NC(=O)CSC[C@@](C)(C(N)=O)NC(=O)[C@H](Cc2ccccc2)N(C)C(=O)[C@H](CCCC)NC(=O)[C@H](Cc2ccccc2F)NC1=O [compound 160, cyclo(F-R-3Pal-Nle-Phe2F-Nle-NMeF-aMeCl-ClAc)] ({CH2CO}-FR[3Pal][Nle][Phe(2-F)][Nle][NMeF][αMeC]-NH2; thioether N-8) was tested, and the pEC50 was under 4.29. In the case of CCCC[C@@H]1NC(=O)[C@H](Cc2ccc(F)nc2)NC(=O)[C@H](C)N(C)C(=O)[C@H](Cc2ccccc2)OC(=O)C23CC(CNC(=O)[C@H](Cc4ccccc4)N(C)C(=O)[C@H](CCC)NC(=O)[C@H](Cc4ccccc4F)NC1=O)(C2)C3 [compound 234, cyclo(FLac-NMeA-4F3Pal-Nle-Phe2F-Nva-NMeF-amBCP)] (cyclo([NMeA][X25][Nle][Phe(2-F)][Nva][NMeF][X1][PhLac])), the pEC50 was under 4.29. CCCC[C@@H]1NC(=O)[C@H](Cc2ccccc2F)NC(=O)[C@H](CC2CCC2)NC(=O)[C@H](Cc2cncnc2)NC(=O)[C@H](C)N(C)C(=O)[C@H](Cc2ccccc2)OC(=O)C23CC(CNC(=O)[C@H](Cc4cccnc4)N(C)C1=O)(C2)C3 [compound 125, cyclo(FLac-NMeA-PyrimAla-cBuA-Phe2F-Nle-NMe3Pal-amBCP)] (cyclo([Cba][Phe(2-F)][Nle][NMe3Pal][X1][PhLac][NMeA][Ala(pyrimidin-5-yl)])) showed a pEC50 of 4.35. CCCC[C@@H]1NC(=O)[C@H](Cc2cccnc2)NC(=O)[C@H](C)N(C)C(=O)[C@H](Cc2ccccc2)OC(=O)C23CC(CNC(=O)[C@H](Cc4ccc(C)nc4)N(C)C(=O)[C@H](CCCC)NC(=O)[C@H](Cc4ccccc4F)NC1=O)(C2)C3 [compound 402, cyclo(FLac-NMeA-3Pal-Nle-Phe2F-Nle-NMe3Pal4Me-amBCP)] (cyclo([3Pal][Nle][Phe(2-F)][Nle][NMe3Pal(6-Me)][X1][PhLac][NMeA])) showed a pEC50 of 5.00. CCCC[C@@H]1NC(=O)[C@H](Cc2cccnc2)NC(=O)[C@H](C)N(C)C(=O)[C@H](Cc2ccc(OC)cc2)NC(=O)C23CC(CNC(=O)[C@H](Cc4cccnc4)N(C)C(=O)[C@H](CCCC)NC(=O)[C@H](Cc4ccccc4F)NC1=O)(C2)C3 [compound 169, cyclo(TyrOMe-NMeA-3Pal-Nle-Phe2F-Nle-NMe3Pal-amBCP)] (cyclo([3Pal][Nle][Phe(2-F)][Nle][NMe3Pal][X1]Y(Me)[NMeA])) was tested, and the pEC50 was under 4.29. CCCCC[C@@H]1NC(=O)[C@H](Cc2ccc(OC)cc2)NC(=O)[C@H](CC2CCC2)NC(=O)[C@H](Cc2ccc(NC(=N)N)cc2)NC(=O)CN(CCCNC(=N)N)C(=O)[C@H](Cc2ccccc2)NC(=O)CSC[C@@](C)(C(N)=O)NC(=O)[C@H](Cc2ccccc2)N(C)C1=O [compound 361, cyclo(F-NGnG-Phe4Gn-cBuA-TyrOMe-Ahp-NMeF-aMeCl-ClAc)] ({CH2CO}-F[Gly(N-(CH2)3-guanidino)][Phe(4-guanidino)][Cba]Y(Me)[Ahp(2)][NMeF][αMeC]-NH2; thioether N-8) was tested, and the pEC50 was 4.40. CCCC[C@@H]1NC(=O)[C@H](Cc2cccnc2)NC(=O)[C@H](C)N(C)C(=O)[C@H](Cc2ccccc2)OC(=O)C23CC(CNC(=O)[C@H](Cc4cccnc4)N(C)C(=O)[C@H](CCCC)NC(=O)[C@H](Cc4ccccc4F)NC1=O)(C2)C3 [compound 244, cyclo(FLac-NMeA-3Pal-Nle-Phe2F-Nle-NMe3Pal-amBCP)] (cyclo([3Pal][Nle][Phe(2-F)][Nle][NMe3Pal][X1][PhLac][NMeA])) gave a pEC50 of 5.14.
